Measurements reported in patent US11419856B2, “Pharmaceutical combinations for use in the treatment of neoplastic diseases” (Basilea Pharmaceutica International AG, priority 2017, dated 2022).

Columns and labels:
[1] = Tolerability in the MDA-MB-231 xenograft model (body weight, mortalities); details: for Final body-weight / Body-weight change: mean ± SD
Experimental: (§1) The mice were housed on irradiated Enrich-o'Cobs™ Laboratory Animal Bedding in static micro-isolators on a 12-hour light cycle at 20-22° C. (68-72° F.) and 40-60% humidity. Charles River Discovery Services North Carolina (CR Discovery Services) specifically complies with the recommendations of the Guide for Care and Use of Laboratory Animals with respect to restraint, husbandry, surgical procedures, feed and fluid regulation, and veterinary care. The animal care and use program at CR Discovery Services is accredited by the Association for Assessment and Accreditation of Laboratory Animal Care International (AAALAC), which assures compliance with accepted standards for the care and use of laboratory animals. These considerations were taken into account in the way that the dosage regimes were designed and implemented.
(§2) All doses were adjusted to 10 mL/kg. The control groups received oral doses of vehicle (pH 5 buffered 0.9% NaCl solution). Eribulin was administered i.v. and BAL101553 orally. When eribulin and BAL0101553 were dosed in combination, Eribulin was administered to all groups first followed by BAL0101553 dosing within 30 minutes of the first regimen.
Body weights were recorded daily for days 1-5 and then twice weekly until the end of the study and tumor volumes were recorded twice weekly until the end of the experiment. These parameters were analyzed and graphically represented by using GraphPad-Prism™ 5 for Windows according to standard procedure. […] Skin and subcutaneous tissue including the tumor cell inoculation site from the flank region were resected, preserved in formalin and embedded in paraffin. Sections of approximately 5 μm were mounted on glass slides and stained with hematoxylin/eosin and were evaluated by a trained pathologist, to identify residual tumor cells at the site of injection, and were being reported as positive for the existence of residual tumor cells or as negative for a complete lack of any evidence of residual tumor cells.

[2] = system: MDA-MB-231 xenograft (human triple negative breast cancer); assay: Antitumor efficacy and induction of cures in the MDA-MB-231 xenograft model (Examples 1A, 1B); assay type: in vivo, mouse
Experimental: as §1, with “Female athymic nude mice (Crl:NU(NCr)-Foxnlnu, Charles River) were used when ten weeks old with a body weight (BW) range of 19.7-27.1 g on Day 1 of the study. The animals were fed ad libitum water (reverse osmosis, 1 ppm Cl) and NIH 31 Modified and Irradiated Lab Diet® consisting of 18.0% crude protein, 5.0% crude fat, and 5.0% crude fiber. The mice” for “The mice”
The human MDA-MB-231 breast adenocarcinoma cells were grown to mid-log phase in RPMI-1640 medium containing 10% fetal bovine serum, 2 mM glutamine, 100 units/mL sodium penicillin G, 25 μg/mL gentamicin, and 100 μg/mL streptomycin sulfate. The tumor cells were cultured in tissue culture flasks in a humidified incubator at 37° C./5% CO2 and 95% air, harvested during exponential growth and resuspended in cold Phosphate-buffered saline (PBS). Each test animal received a subcutaneous (s.c.) injection of 5×10^6 MDA-MB-231 cells (0.1 mL cell suspension) into the right flank, and tumor growth was monitored as the average tumor size approached the target range of 100-150 mm^3. Tumors were measured (mm) in two dimensions using calipers, and volume was calculated using the formula: Tumor Volume (TV) (mm^3)=(width^2×length)/2. Eighteen days after tumor cell implantation, on Day 1 of the study, mice with individual tumor volumes ranging from 75 to 172 mm^3 were randomized into groups of 8-10 animals, with group mean tumor volumes of 114-124 mm^3.
BAL0101553 was dissolved in 0.9% NaCl in water buffered to pH 5 with 1% sodium acetate to yield 2, 2.5 and 3 mg/mL dosing solutions, providing 20, 25 and 30 mg/kg dosages, respectively, in 10 mL/kg dosing volumes. Eribulin (purchased from Eisai Co., Lot. No. 6217, 6288, 6289 and 6309) at 0.5 mg/mL concentration was diluted in saline to yield a 0.01, 0.025 and 0.05 mg/mL dosing solutions, providing 0.1, 0.25 and 0.5 mg/kg dosages, respectively, in a dosing volume of 10 mL/kg.
as §2, with “Groups of mice (n=8-10) bearing MDA-MB-231 tumors were dosed as outlined in the Tables 1 and 3. All” for “All”
Body weights were recorded daily for days 1-5 and then twice weekly until the end of the study and tumor volumes were recorded twice weekly until the end of the experiment. These parameters were analyzed and graphically represented by using GraphPad-Prism™ 5 for Windows according to standard procedure. […] Tumor free animals at the end of the study time were assessed for residual MDA-MB-231 tumor cells by pathological methods. Skin and subcutaneous tissue including the tumor cell inoculation site from the flank region were resected, preserved in formalin and embedded in paraffin.

[3] = E1A, Day 25, i.v. 0.1 mg/kg q2d D1-D9, 0.1 mg/kg q2d D12-D34
[4] = E1A, Day 25, i.v. 0.5 mg/kg q2d D1-D9, 0.5 mg/kg q2d D12-D34
[5] = E1B, Day 26, i.v. 0.1 mg/kg q2d D1-D21, 0.1 mg/kg q2d D25-D43
[6] = E1B, Day 26, i.v. 0.25 mg/kg q2d D1-D21, 0.25 mg/kg q2d D25-D43
[7] = E1B, Day 26, i.v. 0.5 mg/kg q2d D1-D21, 0.5 mg/kg q2d D25-D43
[8] = Day 26, Eribulin i.v. 0.1 mg/kg q2d D1-D21, 0.1 mg/kg q2d D25-D43
[9] = Day 26, Eribulin i.v. 0.25 mg/kg q2d D1-D21, 0.25 mg/kg q2d D25-D43
[10] = Day 26, Eribulin i.v. 0.5 mg/kg q2d D1-D21, 0.5 mg/kg q2d D25-D43
[11] = Day 100 (endpoint), Eribulin i.v. 0.1 mg/kg q2d D1-D21, 0.1 mg/kg q2d D25-D43
[12] = Day 100 (endpoint), Eribulin i.v. 0.25 mg/kg q2d D1-D21, 0.25 mg/kg q2d D25-D43
[13] = Day 100 (endpoint), Eribulin i.v. 0.5 mg/kg q2d D1-D21, 0.5 mg/kg q2d D25-D43
[14] = E1A, Day 25, i.v. 0-1 mg/kg q2d D1-D9, 0.1 mg/kg q2d D12-D34
[15] = E1A, Day 85 (endpoint), i.v. 0-1 mg/kg q2d D1-D9, 0.1 mg/kg q2d D12-D34
[16] = E1A, Day 85 (endpoint), i.v. 0.5 mg/kg q2d D1-D9, 0.5 mg/kg q2d D12-D34

Compound: C=C1C[C@@H]2CC[C@@]34C[C@H]5O[C@H]6[C@@H](O3)[C@H]3O[C@H](CC[C@@H]3O[C@H]6[C@H]5O4)CC(=O)C[C@@H]3[C@@H](OC)[C@@H](C[C@H](O)CN)O[C@H]3C[C@H]3O[C@@H](CC[C@@H]1O2)C[C@@H](C)C3=C.CS(=O)(=O)O [Eribulin, (2R, 3R, 3aS, 7R, 8aS, 9S, 10aR, 11S, 12R, 13aR, 13bS, 15S, 18S, 21S, 24S, 26R, 28R, 29aS)-2-[(2S)-3-Amino-2-hydroxypropyl]-3-methoxy-26-methyl-20,27-dimethylidenehexacosahydro-11,15:18,21:24,28-triepoxy-7,9-ethano-12,15-methano-9H,15H-furo[3,2-i]furo[2′,3′:5,6]pyrano[4,3-b][1,4]dioxacyclopentacosin-5(4H)-one methanesulfonate (salt)]
- T/C (TC-BW, body weight) [1, 3]: 1.00
- T/C (TC-BW, body weight) [1, 4]: 0.96
- Final body-weight [1, 3]: 25.8 ± 3.0 g
- Final body-weight [1, 4]: 24.4 ± 1.9 g
- Body-weight change ([1]; E1A, day-0 until day-25, i.v. 0.1 mg/kg q2d D1-D9, 0.1 mg/kg q2d D12-D34): 2.1 ± 1.0 g
- Mortalities ([1]; E1A, i.v. 0.1 mg/kg q2d D1-D9, 0.1 mg/kg q2d D12-D34): 0/8
- Mortalities ([1]; E1A, i.v. 0.5 mg/kg q2d D1-D9, 0.5 mg/kg q2d D12-D34): 0/8
- T/C (TC-BW, body weight) [1, 5]: 1.09
- T/C (TC-BW, body weight) [1, 6]: 1.02
- T/C (TC-BW, body weight) [1, 7]: 1.03
- Final body-weight [1, 5]: 27.9 ± 2.7 g
- Final body-weight [1, 6]: 26.6 ± 1.7 g
- Final body-weight [1, 7]: 25.5 ± 1.5 g
- Body-weight change ([1]; E1B, day-0 until day-26, i.v. 0.1 mg/kg q2d D1-D21, 0.1 mg/kg q2d D25-D43): 3.9 ± 1.1 g
- Body-weight change ([1]; E1B, day-0 until day-26, i.v. 0.25 mg/kg q2d D1-D21, 0.25 mg/kg q2d D25-D43): 2.3 ± 1.0 g
- Body-weight change ([1]; E1B, day-0 until day-26, i.v. 0.5 mg/kg q2d D1-D21, 0.5 mg/kg q2d D25-D43): 2.3 ± 0.9 g
- Mortalities ([1]; E1B, i.v. 0.1 mg/kg q2d D1-D21, 0.1 mg/kg q2d D25-D43): 0/10
- Mortalities ([1]; E1B, i.v. 0.25 mg/kg q2d D1-D21, 0.25 mg/kg q2d D25-D43, a non-treatment related death footnoted): 0/10^+
- Mortalities ([1]; E1B, i.v. 0.5 mg/kg q2d D1-D21, 0.5 mg/kg q2d D25-D43): 0/10
- # of regressed tumors (total) [2, 8]: 2 (10)
- T/C [2, 8]: 0.12
- # of regressed tumors (total) [2, 9]: 8 (10)
- T/C [2, 9]: −0.05
- # of regressed tumors (total) [2, 10]: 10 (10)
- T/C [2, 10]: −0.09
- # of confirmed cures (total) [2, 11]: 0 (10)
- # of tumors with TV ≤ 4 mm^3 (total) [2, 11]: 0 (10)
- % cures [2, 11]: 0%
- # of confirmed cures (total) [2, 12]: 1 (9)
- # of tumors with TV ≤ 4 mm^3 (total) [2, 12]: 1 (10)
- % cures [2, 12]: 11%
- # of confirmed cures (total) [2, 13]: 6 (10)
- # of tumors with TV ≤ 4 mm^3 (total) [2, 13]: 2 (10)
- % cures [2, 13]: 60%
- # of regressed tumors (total) [2, 14]: 1 (8)
- T/C [2, 14]: 0.13
- # of regressed tumors (total) [2, 4]: 8 (8)
- T/C [2, 4]: −0.09
- # of confirmed cures (total) [2, 15]: 0 (8)
- # of tumors with TV ≤ 4 mm^3 (total) [2, 15]: 0 (8)
- % cures [2, 15]: 0%
- # of confirmed cures (total) [2, 16]: 1 (8)
- # of tumors with TV ≤ 4 mm^3 (total) [2, 16]: 3 (8)
- % cures [2, 16]: 12.5%
